Test results as given in patent US20250206723A1, “METHODS AND PROCESSES FOR THE PREPARATION OF MCT4 INHIBITORS” (Vettore, LLC, priority 2022, published 2025).
Structures can show the parent of a compound that is named as a salt. Blank lines part the entries; values can stand above or below the compound they belong to.

How the values were obtained:
[1] = Rat pharmacokinetics, oral gavage, plasma by LC-MS/MS; assay type: in vivo, Sprague-Dawley rats
[2] = Dog pharmacokinetics, oral powder in capsule; assay type: in vivo, beagle dogs; conditions: for AUCinf / AUClast: single 3 mg/kg, powder in capsule, mean, 3 mg/kg, in ng·h/mL
Experimental: Groups, Dosing, and Collection. The pharmacokinetics of the free acid and the tris salt of the compound of Formula I administered by oral capsules was assessed in dogs. Three male beagle dogs were administered a single dose of 3 mg/kg free acid on Day 1 of the study, and a single dose of 3 mg/kg tris salt on Day 8 of the study. Plasma was collected pre-dose, and at 0.5, 1, 2, 4, 8, 12 and 24 hours post-dose via puncture of peripheral veins.
(§1) LC MS-MS Analysis. Liquid Chromatography with tandem mass spectrometry was used to determine plasma concentrations of the compound of Formula I free acid and the tris salt in plasma samples collected at prescribed time points. Instrumentation included YMC-Triart C18, S-5 μm (50×2.1 mm) HPLC column, liquid chromatograph Shimadzu LC-30AD with communications bus module CBM-20A and Auto SIL-20AC HT; and a Triple Quad 5500 LC/MS/MS instrument. Tolbutamide was used as an internal standard.

[3] = Dog pharmacokinetics, oral gavage of suspension (0.5% methylcellulose in saline); assay type: in vivo; conditions: male beagle dogs; for AUC(0-inf) / AUC(0-t): dog, plasma, oral gavage suspension, mean
Experimental: In a follow-up study, the pharmacokinetics of tris salt of the compound of Formula I were investigated via oral gavage of a 0.5% methylcellulose in saline formulation. Two groups of animals were tested. In Group 1, three male beagle dogs were administered a single dose of 3 mg/kg tris salt. In Group 2, three male beagle dogs were administered a single dose of 30 mg/kg tris salt. Plasma was collected pre-dose, and at 0.5, 1, 2, 4, 8, 12 and 24 hours post-dose via puncture of peripheral veins.
as §1

MCT4 = MCT4 (Homo sapiens, UniProt O15427); conditions: affinity of MCT4 for lactate; cited from earlier work
Sequence of MCT4 (O15427 whole entry): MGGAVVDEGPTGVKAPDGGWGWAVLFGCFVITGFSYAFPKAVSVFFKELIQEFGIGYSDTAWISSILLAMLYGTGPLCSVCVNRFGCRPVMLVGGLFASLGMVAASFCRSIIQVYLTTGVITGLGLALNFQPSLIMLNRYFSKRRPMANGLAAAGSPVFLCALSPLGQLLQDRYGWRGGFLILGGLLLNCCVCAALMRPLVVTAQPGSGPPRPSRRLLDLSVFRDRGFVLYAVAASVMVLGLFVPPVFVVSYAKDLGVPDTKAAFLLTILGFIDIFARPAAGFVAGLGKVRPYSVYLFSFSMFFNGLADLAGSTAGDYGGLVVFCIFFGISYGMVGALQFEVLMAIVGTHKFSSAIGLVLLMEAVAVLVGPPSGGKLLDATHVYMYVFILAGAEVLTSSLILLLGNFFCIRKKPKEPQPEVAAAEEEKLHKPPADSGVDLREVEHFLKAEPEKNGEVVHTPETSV

[4] = rat male, 20 mg/kg free acid, oral gavage, mean
[5] = male beagle dogs, listed as Salt

Compound: CC(C)(OCc1cc(-c2cccc(OC3CCC3)c2)n(-c2ccccc2N2CCC2)n1)C(=O)O [Free Acid, 2-([1-[2-(azetidin-1-yl)phenyl]-5-(3-cyclobutoxyphenyl)-1H-pyrazol-3-yl]methoxy)-2-methylpropanoic acid]
AUC—% Extrap_obs ([1]; rat female, 20 mg/kg free acid, oral gavage, mean): 9.9%
AUC—% Extrap_obs ([1]; rat female, 60 mg/kg free acid, oral gavage, mean): 16.7%
AUC—% Extrap_obs ([1]; rat female, 200 mg/kg free acid, oral gavage, mean): 22.1%
AUClast/D [1, 4]: 8332 ng·h/mL
AUC—% Extrap_obs [1, 4]: 0.61%
AUC—% Extrap_obs ([1]; rat male, 60 mg/kg free acid, oral gavage, mean): 0.477%
AUC—% Extrap_obs ([1]; rat male, 200 mg/kg free acid, oral gavage, mean): 0.704%
clinical symptoms ([1]; rats, single oral gavage, all dose groups): No abnormal clinical symptoms
clinical symptoms ([2]; male beagle dogs, single 3 mg/kg oral capsule): No abnormal clinical symptoms
AUCinf ([2]; male beagle dogs): 1265
AUClast ([2]; male beagle dogs): 1215

AUC—% Extrap_obs ([1]; rat female, 25 mg/kg tris salt, oral gavage, mean): 9%
AUC—% Extrap_obs ([1]; rat female, 75 mg/kg tris salt, oral gavage, mean): 18.5%
AUC—% Extrap_obs ([1]; rat female, 250 mg/kg tris salt, oral gavage, mean): 59.9%
AUC—% Extrap_obs ([1]; rat male, 25 mg/kg tris salt, oral gavage, mean): 1.28%
AUC—% Extrap_obs ([1]; rat male, 75 mg/kg tris salt, oral gavage, mean): 0.473%
AUC—% Extrap_obs ([1]; rat male, 250 mg/kg tris salt, oral gavage, mean): 26.5%
total drug exposure across time (AUClast and AUCInf) versus free acid groups ([1]; rats, male and female): higher
Maximum exposure levels (Cmax) versus free acid groups ([1]; rats, male and female, except females at 20/25 mg/kg): higher
total drug exposure across time (AUClast and AUCInf) compared to the free acid ([2]; dogs, powder in capsule and suspension formulations): higher
AUCinf [2, 5]: 4092
AUClast [2, 5]: 3924
AUC(0-inf) ([3]; 3 mg/kg): 5200 ng·h/mL
AUC(0-t) ([3]; 3 mg/kg): 5080 ng·h/mL
AUC(0-inf) ([3]; 30 mg/kg): 56800 ng·h/mL
AUC(0-t) ([3]; 30 mg/kg): 41300 ng·h/mL
clinical symptoms ([3]; single 3 or 30 mg/kg oral gavage): No abnormal clinical symptoms
Compound: CC(C)(OCc1cc(-c2cccc(OC3CCC3)c2)n(-c2ccccc2N2CCC2)n1)C(=O)O [Tris Salt]

Compound: CC(O)C(=O)O (stereo not shown) [lactate]
Km (MCT4): 28 mM
